Results as given in paper PMC9266550, “The 2-hydroxy-3-(4-aryl-1-piperazinyl)propyl Phthalimide Derivatives as Prodrugs—Spectroscopic and Theoretical Binding Studies with Plasma Proteins” (International Journal of Molecular Sciences, 2022).

How the values were obtained:
[1] = target: T1, bovine serum albumin (BSA) (Bos taurus, UniProt P02769); experiment: intrinsic fluorescence quenching, excitation […] nm; type: binding; conditions: 297 K, phosphate buffer pH 7.5, no site marker; double-log
T1 construct: gene ALB; native plasma protein, commercial (Sigma-Aldrich), mature form

[2] = target: T2, bovine α1-acid glycoprotein (AAG), orosomucoid (Bos taurus, UniProt Q3SZR3); experiment: intrinsic fluorescence quenching, excitation […] nm; type: binding; conditions: 297 K, phosphate buffer pH 7.5; double-log
T2 construct: gene ORM1; native plasma glycoprotein, commercial (Sigma-Aldrich), mature form
T2 sequence (Q3SZR3 19-202): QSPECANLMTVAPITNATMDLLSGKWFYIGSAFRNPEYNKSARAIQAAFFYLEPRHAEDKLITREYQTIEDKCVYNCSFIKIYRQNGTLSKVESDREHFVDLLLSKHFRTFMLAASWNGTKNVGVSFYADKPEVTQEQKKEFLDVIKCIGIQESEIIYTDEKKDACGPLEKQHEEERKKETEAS

T1 sequence (P02769 25-607): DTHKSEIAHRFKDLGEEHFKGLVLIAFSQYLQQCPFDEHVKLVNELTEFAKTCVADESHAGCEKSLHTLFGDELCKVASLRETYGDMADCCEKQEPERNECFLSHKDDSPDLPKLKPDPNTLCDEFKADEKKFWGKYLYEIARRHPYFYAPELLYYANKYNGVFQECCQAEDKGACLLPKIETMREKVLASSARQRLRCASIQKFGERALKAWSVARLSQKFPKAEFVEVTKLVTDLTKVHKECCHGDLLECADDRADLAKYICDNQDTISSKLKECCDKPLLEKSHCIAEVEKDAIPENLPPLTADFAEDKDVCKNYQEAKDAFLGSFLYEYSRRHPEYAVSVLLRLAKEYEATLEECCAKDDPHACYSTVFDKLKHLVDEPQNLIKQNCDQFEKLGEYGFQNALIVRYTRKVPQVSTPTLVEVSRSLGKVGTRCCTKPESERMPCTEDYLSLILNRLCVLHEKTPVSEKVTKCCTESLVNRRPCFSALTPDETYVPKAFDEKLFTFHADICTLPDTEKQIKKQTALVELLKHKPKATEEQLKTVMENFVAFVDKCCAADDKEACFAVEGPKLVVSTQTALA

Compound	Binding / Kb × 10^5 [dm^3.mol^-1] [1]	Binding / Kb × 10^3 [dm^3.mol^-1] [2]
O=C1c2ccccc2C(=O)N1CC(O)CN1CCN(c2ccccc2)CC1 (centres unmarked) [F1]	2.13 × 10^5 dm^3·mol^−1	2.12 × 10^3 dm^3·mol^−1
COc1ccccc1N1CCN(CC(O)CN2C(=O)c3ccccc3C2=O)CC1 (centres unmarked) [F2]	0.55 × 10^5 dm^3·mol^−1	1.21 × 10^3 dm^3·mol^−1
O=C1c2ccccc2C(=O)N1CC(O)CN1CCN(c2cccc(C(F)(F)F)c2)CC1 (centres unmarked) [F3]	1.75 × 10^5 dm^3·mol^−1	4.17 × 10^3 dm^3·mol^−1
O=C1c2ccccc2C(=O)N1CC(O)CN1CCN(C(c2ccccc2)c2ccccc2)CC1 (centres unmarked) [F4]	1.99 × 10^5 dm^3·mol^−1	2.75 × 10^3 dm^3·mol^−1
